Where two headings read alike, the source gives them in different places.
Assays:
[1] = system: ZFL (hepatocytes) cell line; assay: cells; type: cell-based, zebrafish (Danio rerio); conditions: Danio rerio, Hepatocyte
[2] = system: zebrafish embryos; set-up: method as in earlier work; conditions: nominal, cited from earlier work
[3] = ref Comptox, PubChem or DrugBank; cited from earlier work
[4] = system: ZF4 (fibroblasts) cell line; assay: CFDA endpoint of AB/CFDA/NR multiplex, membrane stability; type: cell-based, zebrafish (Danio rerio); conditions: Danio rerio, Fibroblast
[5] = system: ZF4 and ZFL cell lines; assay: Cytotoxicity assays, all endpoints, both cell lines (mean/range); type: cell-based, zebrafish (Danio rerio); conditions: 48 h, mean of all cytotoxicity endpoints (without LDH) in ZF4 and ZFL
[6] = system: ZFL (hepatocytes) cell line; assay: cells; type: cell-based, zebrafish (Danio rerio); conditions: Danio rerio, Hepatocyte; remark: listed apart in the source
[7] = system: ZFL (hepatocytes) cell line; assay: cells; type: cell-based, zebrafish (Danio rerio); conditions: Danio rerio, Hepatocyte; remark: listed apart in the source
[8] = system: ZF4 (fibroblasts) cell line; assay: MTS assay (MTS/BCA multiplex), NAD(P)H metabolism; type: cell-based, zebrafish (Danio rerio); conditions: Danio rerio, Fibroblast
[9] = system: ZF4 (fibroblasts) cell line; assay: alamarBlue (AB) endpoint of AB/CFDA/NR multiplex, cellular respiration; type: cell-based, zebrafish (Danio rerio); conditions: Danio rerio, Fibroblast
[10] = system: ZF4 (fibroblasts) cell line; assay: BCA assay (MTS/BCA multiplex), protein amount; type: cell-based, zebrafish (Danio rerio); conditions: Danio rerio, Fibroblast
[11] = system: ZFL (hepatocytes) cell line; assay: cells; type: cell-based, zebrafish (Danio rerio); conditions: Danio rerio, Hepatocyte; remark: listed apart in the source
[12] = system: ZF4 (fibroblasts) cell line; assay: Neutral red, absorbance (NRa), AB/CFDA/NR multiplex, lysosome stability; type: cell-based, zebrafish (Danio rerio); conditions: Danio rerio, Fibroblast
[13] = system: ZF4 (fibroblasts) cell line; assay: ATP assay (ATP/LDH multiplex), ATP metabolism; type: cell-based, zebrafish (Danio rerio); conditions: Danio rerio, Fibroblast
[14] = system: zebrafish embryos; assay: animal or person; type: in vivo, zebrafish (Danio rerio); conditions: for EC50: Danio rerio
[15] = system: ZFL (hepatocytes) cell line; assay: cells; type: cell-based, zebrafish (Danio rerio); conditions: Danio rerio, Hepatocyte; remark: listed apart in the source
[16] = system: ZFL (hepatocytes) cell line; assay: cells; type: cell-based, zebrafish (Danio rerio); conditions: Danio rerio, Hepatocyte; remark: listed apart in the source
[17] = system: zebrafish cell lines vs zebrafish embryo; assay: Potency ratios IC50;x/EC50;x (cytotoxicity assays vs mFET); set-up: species or system zebrafish (Danio rerio)
[18] = system: ZF4 (fibroblasts) cell line; assay: Neutral red, fluorescence (NRf), AB/CFDA/NR multiplex, lysosome stability; type: cell-based, zebrafish (Danio rerio); conditions: Danio rerio, Fibroblast
[19] = system: ZFL (hepatocytes) cell line; assay: cells; type: cell-based, zebrafish (Danio rerio); conditions: Danio rerio, Hepatocyte; remark: listed apart in the source
[20] = system: diverse mammalian cell assay results; set-up: method as in https://comptox.epa.gov/dashboard/; conditions: COMPTOX; ref https://comptox.epa.gov/dashboard/; read-out: median AC50; cited from earlier work

## COC(=O)Nc1nc2ccc([S+]([O-])c3ccccc3)cc2[nH]1 (stereo not drawn) [Oxfendazole, oxfendazole]
[1]; MTS - ZFL, log10 of IC50, read-out: LogIC50 (converted)
  IC50: 9.73 µM
[1]; MTS - ZFL, read-out: IC50
  IC50: 9.73 µM
[1]; ZFL, 48 h exposure, nominal, log10, read-out: logIC50 (log10 IC50;nom) MTS (converted)
  IC50: 9.77 µM
[1]; ZFL, 48 h exposure, nominal, read-out: IC50;nom MTS
  IC50: 9.73 µM
[2]; 144 hpf, converted, listed as Ox
  EC50: 21.6 µM
[2]; log10
  logEC50 144 hpf: -4.666 M
[3]
  BCF: 161
  Physiological charge: 0
  Water Solubility: insoluble
  logKoa: 9.57
  logKow: 1.45
  pKa (Strongest Acidic): 9.26
  pKa (Strongest Basic): 3.57
  w_solubility (water solubility): 864 µM
[4]; CFDA - ZF4, log10 of IC50, read-out: LogIC50 (converted)
  IC50: 153 µM
[4]; CFDA - ZF4, read-out: IC50
  IC50: 153 µM
[4]; ZF4, 48 h exposure, nominal, log10, read-out: logIC50 (log10 IC50;nom) CFDA (converted)
  IC50: 151 µM
[4]; ZF4, 48 h exposure, nominal, read-out: IC50;nom CFDA
  IC50: 153 µM
[5]; Danio rerio, log10, read-out: Mean log IC50nom (converted)
  IC50: 23.4 µM
[5]; log10, listed as Ox
  Mean log IC50nom: -4.631 M
[6]; NR-fluo - ZFL, log10 of IC50, read-out: LogIC50 (converted)
  IC50: 7.37 µM
[6]; NR-fluo - ZFL, read-out: IC50
  IC50: 7.37 µM
[6]; ZFL, 48 h exposure, nominal, log10, read-out: logIC50 (log10 IC50;nom) NRf (converted)
  IC50: 7.41 µM
[6]; ZFL, 48 h exposure, nominal, read-out: IC50;nom NRf
  IC50: 7.37 µM
[7]; AB - ZFL, log10 of IC50, read-out: LogIC50 (converted)
  IC50: 10.4 µM
[7]; AB - ZFL, read-out: IC50
  IC50: 10.4 µM
[7]; ZFL, 48 h exposure, nominal, log10, read-out: logIC50 (log10 IC50;nom) AB (converted)
  IC50: 10.5 µM
[7]; ZFL, 48 h exposure, nominal, read-out: IC50;nom AB
  IC50: 10.4 µM
[8]; MTS - ZF4, log10 of IC50, read-out: LogIC50 (converted)
  IC50: 20.4 µM
[8]; MTS - ZF4, read-out: IC50
  IC50: 20.4 µM
[8]; ZF4, 48 h exposure, nominal, log10, read-out: logIC50 (log10 IC50;nom) MTS (converted)
  IC50: 20.4 µM
[8]; ZF4, 48 h exposure, nominal, read-out: IC50;nom MTS
  IC50: 20.4 µM
[9]; AB - ZF4, log10 of IC50, read-out: LogIC50 (converted)
  IC50: 124 µM
[9]; AB - ZF4, read-out: IC50
  IC50: 124 µM
[9]; ZF4, 48 h exposure, nominal, log10, read-out: logIC50 (log10 IC50;nom) AB (converted)
  IC50: 123 µM
[9]; ZF4, 48 h exposure, nominal, read-out: IC50;nom AB
  IC50: 124 µM
[10]; BCA - ZF4, log10 of IC50, read-out: LogIC50 (converted)
  IC50: 6.43 µM
[10]; BCA - ZF4, read-out: IC50
  IC50: 6.43 µM
[10]; ZF4, 48 h exposure, nominal, log10, read-out: logIC50 (log10 IC50;nom) BCA (converted)
  IC50: 6.46 µM
[10]; ZF4, 48 h exposure, nominal, read-out: IC50;nom BCA
  IC50: 6.43 µM
[11]; CFDA - ZFL, log10 of IC50, read-out: LogIC50 (converted)
  IC50: 320 µM
[11]; CFDA - ZFL, read-out: IC50
  IC50: 320 µM
[11]; ZFL, 48 h exposure, nominal, log10, read-out: logIC50 (log10 IC50;nom) CFDA (converted)
  IC50: 324 µM
[11]; ZFL, 48 h exposure, nominal, read-out: IC50;nom CFDA
  IC50: 320 µM
[12]; NR-abs - ZF4, log10 of IC50, read-out: LogIC50 (converted)
  IC50: 58.6 µM
[12]; NR-abs - ZF4, read-out: IC50
  IC50: 58.6 µM
[12]; ZF4, 48 h exposure, nominal, log10, read-out: logIC50 (log10 IC50;nom) NRa (converted)
  IC50: 58.9 µM
[12]; ZF4, 48 h exposure, nominal, read-out: IC50;nom NRa
  IC50: 58.6 µM
[12]; ZF4 cell line, NRa endpoint, nominal, read-out: IC50;nom
  IC50: 18.5 µg/mL
[13]; ATP - ZF4, log10 of IC50, read-out: LogIC50 (converted)
  IC50: 144 µM
[13]; ATP - ZF4, read-out: IC50
  IC50: 144 µM
[13]; ZF4, 48 h exposure, nominal, log10, read-out: logIC50 (log10 IC50;nom) ATP (converted)
  IC50: 145 µM
[13]; ZF4, 48 h exposure, nominal, read-out: IC50;nom ATP
  IC50: 144 µM
[14]; 48 hpf time point less sensitive than 144 hpf
  difference in toxicity (EC50;nom) between 48 hpf and 144 hpf: approximately the same
[14]; 48 hpf, nominal, log10, listed as Ox
  log EC50;nom (mFET): -4.607 M
[14]; 48 hpf, nominal, log10, read-out: log EC50;nom (mFET) (converted)
  EC50: 24.5 µM
[14]; 48 hpf, nominal, read-out: EC50;nom (embryo)
  EC50: 7.79 µg/mL
[14]; read-out: EC50 48hpf
  EC50: 24.7 µM
[14]; read-out: EC50;nom (mFET)
  EC50: 24.7 µM
[15]; NR-abs - ZFL, log10 of IC50, read-out: LogIC50 (converted)
  IC50: 8.93 µM
[15]; NR-abs - ZFL, read-out: IC50
  IC50: 8.93 µM
[15]; ZFL, 48 h exposure, nominal, log10, read-out: logIC50 (log10 IC50;nom) NRa (converted)
  IC50: 8.91 µM
[15]; ZFL, 48 h exposure, nominal, read-out: IC50;nom NRa
  IC50: 8.93 µM
[16]; ATP - ZFL, log10 of IC50, read-out: LogIC50 (converted)
  IC50: 106 µM
[16]; ATP - ZFL, read-out: IC50
  IC50: 106 µM
[16]; ZFL, 48 h exposure, nominal, log10, read-out: logIC50 (log10 IC50;nom) ATP (converted)
  IC50: 105 µM
[16]; ZFL, 48 h exposure, nominal, read-out: IC50;nom ATP
  IC50: 106 µM
[17]; median over cytotoxicity endpoints, nominal, 48 h cells / 48 hpf mFET
  potency ratio IC50;nom/EC50;nom (median): 1.51
[17]; nominal concentrations, higher potency in the mFET
  difference in sensitivity between embryo (EC50;nom) and cells (IC50;nom): equal nominal median concentrations between test systems
[18]; NR-fluo - ZF4, log10 of IC50, read-out: LogIC50 (converted)
  IC50: 54.3 µM
[18]; NR-fluo - ZF4, read-out: IC50
  IC50: 54.3 µM
[18]; ZF4, 48 h exposure, nominal, log10, read-out: logIC50 (log10 IC50;nom) NRf (converted)
  IC50: 53.7 µM
[18]; ZF4, 48 h exposure, nominal, read-out: IC50;nom NRf
  IC50: 54.3 µM
[19]; BCA - ZFL, log10 of IC50, read-out: LogIC50 (converted)
  IC50: 0.058 µM
[19]; BCA - ZFL, read-out: IC50
  IC50: 0.058 µM
[19]; ZFL, 48 h exposure, nominal, log10, read-out: logIC50 (log10 IC50;nom) BCA (converted)
  IC50: 0.0575 µM
[19]; ZFL, 48 h exposure, nominal, read-out: IC50;nom BCA
  IC50: 0.058 µM
[20]
  AC50: 0.34 µM
